Laboratory results published in US9216991B2 (Ares Trading S.A., priority 2012, dated 2015).
Counter-ions that a name gives are not always drawn.

Target: T1, IRAK4 (Homo sapiens, UniProt Q9NWZ3)
T1 construct: His (N); TEV cleavage site (N)
T1 sequence (Q9NWZ3 1-460): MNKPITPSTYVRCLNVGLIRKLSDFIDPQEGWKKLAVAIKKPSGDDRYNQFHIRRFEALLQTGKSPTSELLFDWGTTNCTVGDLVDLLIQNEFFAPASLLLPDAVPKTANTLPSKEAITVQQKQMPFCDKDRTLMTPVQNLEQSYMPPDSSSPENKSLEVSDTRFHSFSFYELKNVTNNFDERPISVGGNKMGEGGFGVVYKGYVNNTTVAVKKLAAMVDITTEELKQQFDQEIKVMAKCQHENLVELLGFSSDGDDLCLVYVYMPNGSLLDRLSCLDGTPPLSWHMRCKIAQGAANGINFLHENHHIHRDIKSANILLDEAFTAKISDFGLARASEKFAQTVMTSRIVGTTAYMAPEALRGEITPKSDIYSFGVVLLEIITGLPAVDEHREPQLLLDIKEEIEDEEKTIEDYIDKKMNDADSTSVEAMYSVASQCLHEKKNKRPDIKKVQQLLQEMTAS
Assay: IRAK4 Enzymatic Assay
Assay type: biochemical
Conditions: His-TEV-IRAK4 20 ng/well, ATP 2 μM, STK1-biotin peptide 300 nM, 3 hours at 30° C., FlashPlate radioactivity
Procedure, shortened: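 Radiometric FlashPlate readout: biotin-STK1 substrate (300 nM) captured on streptavidin after EDTA stop and washes. Reaction used His-TEV-IRAK4 (20 ng/well), 2 μM [^33P]-spiked ATP and compound (1 nM-20 μM), incubated 3 h at 30 °C in 50 mM HEPES pH 7.0, 10 mM MgCl2, 5 mM MnCl2, 2 mM DTT.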

Structure (SMILES) | IC50 [nM]
Cn1cc(-c2cccc(-c3ncc(-c4cnn(CC(O)CO)c4)cn3)c2)cn1 (stereo not drawn) [Example 212, 3-(4-{2-[3-(1-Methyl-1H-pyrazol-4-yl)-phenyl]-pyrimidin-5-yl}-pyrazol-1-yl)-propane-1,2-diol] | 100 to 1000
Cn1cc(-c2cccc(-c3ncc(-c4cnn(C5CCC6(CCC(=O)N6)CC5)c4)cn3)c2)cn1 (single isomer, unassigned) [Example 251, Trans-8-(4-{2-[3-(1-Methyl-1H-pyrazol-4-yl)-phenyl]-pyrimidin-5-yl}-pyrazol-1-yl)-1-aza-spiro[4.5]decan-2-one] | 100 to 1000
Cc1cc(-c2cccc(-c3ncc(-c4cnn(C5CCOCC5)c4)cn3)c2)ccn1 [Example 139, 2-[3-(2-Methyl-pyridin-4-yl)-phenyl]-5-[1-(tetrahydro-pyran-4-yl)-1H-pyrazol-4-yl]-pyrimidine] | 100 to 1000
Cn1cc(-c2cccc(-c3ncc(-c4cnn([C@H]5C=C[C@@H](O)C5)c4)cn3)c2)cn1 [Example 231, (1S,4R)-4-[4-[2-[3-(1-methylpyrazol-4-yl)phenyl]pyrimidin-5-yl]pyrazol-1-yl]cyclopent-2-en-1-ol] | 100 to 1000
Cn1cncc1-c1cccc(-c2ncc(-c3cnn(CC(=O)N4CCCC4)c3)cn2)c1 [Example 37, 2-(4-{2-[3-(3-Methyl-3H-imidazol-4-yl)-phenyl]-pyrimidin-5-yl}-pyrazol-1-yl)-1-pyrrolidin-1-yl-ethanone] | 1000 to 5000
Cn1cc(-c2cccc(-c3ncc(-c4cnn(CCN5CCCC5)c4)cn3)c2)cn1 [Example 58, 2-[3-(1-Methyl-1H-pyrazol-4-yl)-phenyl]-5-[1-(2-pyrrolidin-1-yl-ethyl)-1H-pyrazol-4-yl]-pyrimidine] | 100 to 1000
Cn1cc(-c2cccc(-c3ncc(-c4cnn(CC(=O)N5CCCC5)c4)cn3)c2)cn1 [Example 9, 2-(4-{2-[3-(1-Methyl-1H-pyrazol-4-yl)-phenyl]-pyrimidin-5-yl}-pyrazol-1-yl)-1-pyrrolidin-1-yl-ethanone] | 100 to 1000
Cc1cc(-c2cccc(-c3ncc(-c4cnn([C@H]5CC[C@H](C(=O)N(C)C)CC5)c4)cn3)c2)ccn1 [Example 229, Trans-4-(4-{2-[3-(2-Methyl-pyridin-4-yl)-phenyl]-pyrimidin-5-yl}-pyrazol-1-yl)-cyclohexanecarboxylic acid dimethylamide] | 100 to 1000
Cn1cc(-c2cccc(-c3ncc(-c4cnn(CC(=O)N5CC6CCC(C5)O6)c4)cn3)c2)cn1 [Example 94, 2-(4-{2-[3-(1-Methyl-1H-pyrazol-4-yl)-phenyl]-pyrimidin-5-yl}-pyrazol-1-yl)-1-(8-oxa-3-aza-bicyclo[3.2.1]oct-3-yl)-ethanone] | 100 to 1000
O=C(Cn1cc(-c2cnc(-c3cccc(-c4cnn(CCO)c4)c3)nc2)cn1)N1CCCC1 [Example 59, 2-[4-(2-{3-[1-(2-Hydroxy-ethyl)-1H-pyrazol-4-yl]-phenyl}-pyrimidin-5-yl)-pyrazol-1-yl]-1-pyrrolidin-1-yl-ethanone] | 1000 to 5000
Cn1cc(-c2cccc(-c3ncc(-c4cnn([C@H]5CC[C@H](C(=O)N6CC[C@@H](O)C6)CC5)c4)cn3)c2)cn1 [Example 186, ((R)-3-Hydroxy-pyrrolidin-1-yl)-[4-(4-{2-[3-(1-methyl-1H-pyrazol-4-yl)-phenyl]-pyrimidin-5-yl}-pyrazol-1-yl)-cyclohexyl]-methanone] | < 100
Cn1cc(-c2cccc(-c3ncc(-c4cnn(CC(F)F)c4)cn3)c2)cn1 [Example 67, 5-[1-(2,2-Difluoro-ethyl)-1H-pyrazol-4-yl]-2-[3-(1-methyl-1H-pyrazol-4-yl)-phenyl]-pyrimidine] | 100 to 1000
Cn1cc(-c2cccc(-c3ncc(-c4cnn(CC(=O)N5CCCOCC5)c4)cn3)c2)cn1 [Example 93, 2-(4-{2-[3-(1-Methyl-1H-pyrazol-4-yl)-phenyl]-pyrimidin-5-yl}-pyrazol-1-yl)-1-[1,4]oxazepan-4-yl-ethanone] | 100 to 1000
Cc1c(-c2cccc(-c3ncc(-c4cnn(C5CCNCC5)c4)cn3)c2)cnn1C [Example 15, 2-[3-(1,5-Dimethyl-1H-pyrazol-4-yl)-phenyl]-5-(1-piperidin-4-yl-1H-pyrazol-4-yl)-pyrimidine hydrochloride] | 100 to 1000
Cn1cc(-c2cccc(-c3ncc(-c4cnn(CC(=O)N5CCCCC5)c4)cn3)c2)cn1 [Example 25, 2-(4-{2-[3-(1-Methyl-1H-pyrazol-4-yl)-phenyl]-pyrimidin-5-yl}-pyrazol-1-yl)-1-piperidin-1-yl-ethanone] | 1000 to 5000
Cn1cc(-c2cccc(-c3ncc(-c4cnn(C[C@@H]5CCCN5)c4)cn3)c2)cn1 [Example 70, 2-[3-(1-Methyl-1H-pyrazol-4-yl)-phenyl]-5-(1-(S)-1-pyrrolidin-2-ylmethyl-1H-pyrazol-4-yl)-pyrimidine hydrochloride] | 1000 to 5000
Cn1cc(-c2cccc(-c3ncc(-c4cnn([C@H]5CC[C@@H](O)CC5)c4)cn3)c2)cn1 [Example 196, Cis-4-(4-{2-[3-(1-Methyl-1H-pyrazol-4-yl)-phenyl]-pyrimidin-5-yl}-pyrazol-1-yl)-cyclohexanol] | 100 to 1000
Cn1cc(-c2cccc(-c3ncc(-c4cnn(C5CCC[C@H](S(C)(=O)=O)C5)c4)cn3)c2)cn1 (single isomer, unassigned) [Example 279, 5-[1-(Cis-3-Methanesulfonyl-cyclohexyl)-1H-pyrazol-4-yl]-2-[3-(1-methyl-1H-pyrazol-4-yl)-phenyl]-pyrimidine] | < 100
CN1CCN(C(=O)CCn2cc(-c3cnc(-c4cccc(-c5cnn(C)c5)c4)nc3)cn2)CC1 [Example 102, 1-(4-Methyl-piperazin-1-yl)-3-(4-{2-[3-(1-methyl-1H-pyrazol-4-yl)-phenyl]-pyrimidin-5-yl}-pyrazol-1-yl)-propan-1-one] | 1000 to 5000
Cn1cc(-c2cccc(-c3ncc(-c4cnn(CC(=O)N5CCC6(CC5)COC6)c4)cn3)c2)cn1 [Example 86, 2-(4-{2-[3-(1-Methyl-1H-pyrazol-4-yl)-phenyl]-pyrimidin-5-yl}-pyrazol-1-yl)-1-(2-oxa-7-aza-spiro[3.5]non-7-yl)-ethanone] | 100 to 1000
Cn1cc(-c2cccc(-c3ncc(-c4cn(C5CCOCC5)nc4C(N)=O)cn3)c2)cn1 [Example 137, 4-{2-[3-(1-Methyl-1H-pyrazol-4-yl)-phenyl]-pyrimidin-5-yl}-1-(tetrahydro-pyran-4-yl)-1H-pyrazole-3-carboxylic acid amide] | 1000 to 5000
Cc1cc(-c2cccc(-c3ncc(-c4cnn([C@H]5CC[C@H](CO)CC5)c4)cn3)c2)cnn1 [Example 256, Trans-[4-(4-{2-[3-(6-Methyl-pyridazin-4-yl)-phenyl]-pyrimidin-5-yl}-pyrazol-1-yl)-cyclohexyl]-methanol] | < 100
Cn1cc(-c2ccc(F)c(-c3ncc(-c4cnn([C@H]5CC[C@H](O)CC5)c4)cn3)c2)cn1 [Example 292, 4-(4-{2-[2-Fluoro-5-(1-methyl-1H-pyrazol-4-yl)-phenyl]-pyrimidin-5-yl}-pyrazol-1-yl)-cyclohexanol] | 100 to 1000
CC(=O)N1CC[C@H](n2cc(-c3cnc(-c4cccc(-c5cnn(C)c5)c4)nc3)cn2)C[C@@H]1C [Example 248, 1-[(2S,4S)-2-Methyl-4-(4-{2-[3-(1-methyl-1H-pyrazol-4-yl)-phenyl]-pyrimidin-5-yl}-pyrazol-1-yl)-piperidin-1-yl]-ethanone] | < 100
